Common to all, as to test: NCI-60 cell line screen, 48 h
For assay [1], the system named is MCF7 breast.
For assay [2], the system named is HCC-2998 colon.
For assay [3], the system named is HL-60(TB) leukemia.
Assay [4] has as its system LOX IMVI melanoma.
Assay [5] concerns MDA-MB-435.
Assay [6] relates to 786-0 renal.
In assay [7] the test system is UACC-62 melanoma.
The subject of assay [8] is CCRF-CEM leukemia.
Assay [9] has as its system SF-268 CNS.
Assay [10] has as its system PC-3 prostate.

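Cells were grown in 96-well plates and exposed to each compound for 48 hours at five concentrations; endpoints were interpolated linearly between bracketing concentrations, or set to the highest concentration if not reached. At the GI50, growth is halved. The concentration for full growth arrest is given as TGI.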

As for `Cc1cccc(N=N/C(=N\NC(=O)c2cc(Cl)ccc2O)c2ccc(N(CCC#N)CCC#N)cc2C)c1`, the TGI in assay [1] is more than 100 µM; in assay [2], 58.7 µM; in [3], 34.4 µM; in [4] it was more than 100 µM; in assay [5], more than 100 µM; in assay [6], more than 100 µM. In addition, the TGI was 84.6 µM in assay [7], 34.3 µM in assay [8], more than 100 µM in assay [9] and more than 100 µM in [10].

For the compound `Cn1c(=O)c2c(=O)cc(N)[nH]c2n(C)c1=O`, the TGI in [1], in assay [2], in [3], in [4], in [5] and in assay [6] was more than 100 µM in each case. Besides, the TGI in assay [7], in assay [8], in assay [9] and in assay [10] was more than 100 µM in each case.

For the compound `O=C1CN(c2ccccc2)C(=O)CN1NCNN1CC(=O)N(c2ccccc2)CC1=O`, the TGI in assay [1], in assay [2], in assay [3], in assay [5], in [6] and in assay [7] was more than 100 µM throughout. Besides, the TGI in [8], in assay [9] and in [10] was more than 100 µM throughout.

Consider `CCCCCCCCCCCCCCCCCCOc1ccccc1COP(=O)(O)OOCC[N+](C)(C)C`, for which the GI50 in assay [1] is 1.14 µM; in assay [2], 0.787 µM; in assay [3] it was 0.846 µM; in [5], 2.65 µM; in [7], 0.901 µM; in assay [8] it was 0.751 µM. Besides, the GI50 in assay [9] was 1.55 µM; in [10] it was 0.824 µM. The TGI in assay [1] was 3.32 µM; in [2], 1.6 µM; in assay [3] it was 2.19 µM; in assay [5], 12.3 µM; in assay [7], 2.82 µM; in assay [8], 2.02 µM. For the same compound, the results for the TGI in [9] and in assay [10] were 7.19 µM and 1.8 µM, respectively.

With `CC(C)C(/C=C/c1ccc(Cl)cc1)=N\NC(=O)N/N=C(/C=C/c1ccc(Cl)cc1)C(C)C`, the TGI in [1] was more than 100 µM; in [2] it was more than 100 µM; in assay [3], more than 100 µM; in assay [5], 87.6 µM; in assay [6], 33.5 µM; in [7] it was more than 100 µM. For the same compound, the TGI in assay [8] was more than 100 µM; in assay [9], 41.3 µM; in assay [10], more than 100 µM.

For the compound `COc1ccc(Nc2cc(=O)[nH]c(=O)[nH]2)cc1`, the TGI in [1], in [2], in assay [3], in [4], in assay [5] and in [6] was more than 100 µM throughout. The TGI in assay [8], in [9] and in assay [10] was more than 100 µM each time.

On to `CC1(C)N([O-])[N+](=O)C1(C)O` (configuration not stated), for which the TGI in assay [1], in [2], in [3], in assay [4], in [5] and in assay [6] was more than 100 µM in each case. Besides, the TGI in assay [7], in assay [8], in [9] and in [10] was more than 100 µM in each case.

In the case of `O[C@@]12Cc3c([nH]c4ccccc34)[C@@H]3Oc4c(-c5ccccc5)ccc5c4[C@@]31CCN(CC1CC1)[C@@H]2C5`, the TGI in assay [1] was determined as 3.22 µM; in [2] it was 2.92 µM; in assay [3], 4.48 µM; in [4], 3.52 µM; in [5], 3.27 µM; in [6], 3.04 µM. For the same compound, the TGI amounted to 3.32 µM in [7], 7.56 µM in [8], 14.7 µM in assay [9] and 3.76 µM in assay [10].

With `O=C1OC(c2ccccc2Br)=N/C1=C/c1ccccc1`, the TGI in assay [1] is more than 100 µM; in [2], 39.4 µM; in assay [3], more than 100 µM; in assay [4] it was 38.8 µM; in assay [5] it was 93.7 µM; in assay [7] it was more than 100 µM. Besides, the TGI in assay [8], in [9] and in assay [10] was more than 100 µM throughout.

`COC(=O)C1Cc2cc3c(cc2C1)CCC3`: the TGI in assay [1], in [2], in assay [3], in assay [4], in assay [5] and in assay [6] was more than 100 µM each time. Moreover, the TGI in assay [7], in assay [8], in assay [9] and in [10] was more than 100 µM in each case.

Consider `Cc1ccc(S(=O)(=O)Nn2c(S)c(C#N)c(-c3ccc(Cl)cc3)c(C#N)c2=O)cc1`, for which the TGI in assay [1] was more than 100 µM; in assay [2], more than 100 µM; in [3] it was 65.8 µM; in assay [4] it was more than 100 µM; in assay [5], 86.9 µM; in assay [6] it was more than 100 µM. Besides, the TGI in assay [7], in assay [8] and in [10] was more than 100 µM each time.

In the case of `CCOC(=O)CC1Nc2ccccc2C12CCc1c([nH]c3ccccc13)C2C(=O)OCC` (configuration not stated), the TGI in assay [1] is more than 100 µM; in [2], more than 100 µM; in assay [3], 53.8 µM; in assay [4], more than 100 µM; in assay [5], more than 100 µM; in assay [6], more than 100 µM. Also, the TGI in [7], in [8], in [9] and in assay [10] was more than 100 µM throughout.

On to `OC(Cc1cc(CC(O)(C(F)(F)F)C(F)(F)F)nc(CC(O)(C(F)(F)F)C(F)(F)F)c1)(C(F)(F)F)C(F)(F)F`, for which the TGI is 9.06 µM in assay [1]; more than 10 µM in [2]; more than 10 µM in assay [3]; 1.34 µM in assay [4]; 7.94 µM in [5]; 6.34 µM in assay [6]. Also, the TGI in assay [7] was 1.6 µM; in [8], more than 10 µM; in assay [9], 4.87 µM; in assay [10], 0.776 µM.

As to `C[C@@H](c1ccccc1)N1CO[C@@]2(C#Cc3ccc4c(c3)OCO4)CCC[C@@H]12`, the TGI in assay [1] was more than 100 µM; in [2], 34.7 µM; in assay [3], more than 100 µM; in assay [4] it was 25.2 µM; in assay [5], 28.2 µM; in assay [6] it was 36 µM. Also, the TGI is more than 100 µM in assay [7], more than 100 µM in [8] and 27.1 µM in assay [10].

Take `CC1CC(=O)Nc2ccccc2N1C(=O)C1CC1` (configuration not stated): the TGI in assay [1], in assay [2], in assay [3], in [4], in [5] and in assay [6] was more than 100 µM in each case. Further, the TGI in assay [8], in [9] and in assay [10] was more than 100 µM in each case.

Consider `O=C(/C=C/c1cccc(Br)c1)N1CCN(CCOC(c2ccccc2)c2ccccc2)CC1`, for which the TGI in assay [1] is more than 100 µM; in [2] it was more than 100 µM; in [3], 46.6 µM; in [4], 54.8 µM; in assay [5], more than 100 µM; in assay [6], more than 100 µM. Moreover, the TGI in assay [7] is more than 100 µM; in assay [8] it was 39.8 µM; in [9], more than 100 µM; in [10], more than 100 µM.

In the case of `CC(C)c1c(O[Si](C(C)C)(C(C)C)C(C)C)cc2c(c1O)CC[C@H]1C(C)(C)CCC[C@]21C`, the TGI is more than 100 µM in [1]; 60.4 µM in assay [3]; more than 100 µM in assay [4]; more than 100 µM in [5]; more than 100 µM in assay [6]; more than 100 µM in assay [7]. Besides, the TGI in assay [8], in [9] and in assay [10] was more than 100 µM in each case.

Turning to `COC(=O)c1c2c(cc3c1CC1(C3)Cc3cc4c(c(C(=O)OC)c3C1)CCC4)CCC2`, the TGI in assay [1], in assay [2], in assay [3], in [4], in assay [5] and in [6] was more than 100 µM throughout. Moreover, the TGI in [7], in assay [8] and in assay [10] was more than 100 µM each time.

On to `O=C(CCCn1ccnc1[N+](=O)[O-])NCCn1cnc([N+](=O)[O-])n1`, for which the TGI in assay [1], in assay [3], in assay [4], in assay [5], in [6] and in [7] was more than 100 µM in each case. The TGI in assay [8], in assay [9] and in [10] was more than 100 µM in each case.

Take `C#CCNC(=O)CC[C@@H](C)[C@H]1CC[C@H]2[C@@H]3CC[C@@H]4CC(=O)CC[C@]4(C)[C@H]3CC[C@]12C`: the GI50 is 12 µM in [1]; 19.7 µM in assay [2]; 3.47 µM in assay [3]; 17.5 µM in assay [4]; 18.7 µM in assay [5]; 9.02 µM in assay [7]. For the same compound, the GI50 in assay [8] is 4.39 µM; in assay [9], 17.5 µM; in [10] it was 2.91 µM. The TGI in assay [1] was determined as 52.7 µM; in assay [2] it was 54.1 µM; in [3] it was 18 µM; in assay [4] it was 39.8 µM; in [5] it was 60.1 µM; in [7], 28.6 µM. Besides, the TGI came to 24.1 µM in assay [8], 44.4 µM in assay [9] and 24.2 µM in assay [10].

With `COc1ccc(C=O)cc1OS(=O)(=O)C(F)(F)C(F)(F)C(F)(F)C(F)(F)F`, the TGI in assay [1] is more than 100 µM; in assay [3], 21.8 µM; in assay [4] it was 41.9 µM; in [5], 48.9 µM; in assay [6], more than 84.1 µM; in [7] it was 50.7 µM. The TGI in [8] was 63.1 µM; in [9] it was more than 100 µM; in assay [10], more than 100 µM.

For `Nc1ncnc2c1ccn2-c1cccc(NC(=O)c2ccc(N3CCOCC3)c(C(F)(F)F)c2)c1`, the GI50 in [1] was 3.44 µM; in assay [2], 4.6 µM; in assay [3], 3.17 µM; in [4], 3.1 µM; in [5] it was 2.64 µM; in assay [7], 1.99 µM. Besides, the GI50 in assay [8] was 2.07 µM; in [9], 3.44 µM; in assay [10], 2.51 µM. Besides, the TGI in [1] worked out at 14.2 µM; in assay [2] it was 19.6 µM; in assay [3], 8.07 µM; in assay [4], 12.7 µM; in assay [5], 13.2 µM; in [7], 5.78 µM. Also, the TGI turned out to be 11.8 µM in [8], 13.1 µM in [9] and 10.4 µM in [10].

Take `COc1cc(N(CCCl)CCCl)ccc1/C=N\NC(=O)c1cccnc1`: the GI50 was 23.8 µM in assay [1]; 41.2 µM in [2]; 11.4 µM in assay [3]; 32.2 µM in assay [4]; 30.3 µM in assay [5]; 10.5 µM in [7]. The GI50 is 23 µM in assay [8], 36.6 µM in assay [9] and 21.4 µM in assay [10]. The TGI was more than 100 µM in assay [1]; more than 100 µM in assay [2]; 40.4 µM in [3]; more than 100 µM in assay [4]; more than 100 µM in assay [5]; 29.5 µM in assay [7]. Further, the TGI in [8], in assay [9] and in [10] was more than 100 µM throughout.

Turning to `CC(C)=CCc1cc(/C=C/C(=O)O)cc(CC=C(C)C)c1O`, the TGI in [1], in assay [3], in assay [4], in [5], in assay [6] and in assay [7] was more than 100 µM each time. Besides, the TGI in assay [8], in [9] and in assay [10] was more than 100 µM in each case.

Regarding `O=C(CC(=O)N1N=C(N(c2ccccc2)c2ccccc2)CC1c1ccccc1)Nc1cccc(Cl)c1` (configuration not stated), the TGI in assay [1], in assay [2], in assay [3], in [5], in [6] and in assay [7] was more than 100 µM each time. Besides, the TGI in assay [8], in assay [9] and in [10] was more than 100 µM each time.
